≈ marks a conversion by molar mass, not a printed value.

Data set [1] relates to Nakaseomyces glabratus. Description: Indifferent antifungal activity against fluconazole resistant Candida glabrata 109 overexpressing CgCdr1p transporter assessed as reduction in fungal growth incubated for 48 hrs in presence of lapachone by checkboard assay based microplate reader analysis. In kind it is functional.
The test system of data set [2] is Nakaseomyces glabratus. The data set can be described thus: Indifferent antifungal activity against fluconazole resistant Candida glabrata 109 overexpressing CgCdr1p transporter assessed as reduction in fungal growth incubated for 48 hrs by checkboard assay based microplate reader analysis. In kind it is functional.
Data set [3] has as its system Nakaseomyces glabratus. Description: Antibiofilm activity against fluconazole resistant Candida glabrata 109 overexpressing CgCdr1p transporter assessed as reduction in metabolic activity at highest concentration incubated for 48 hrs. In kind it is functional. On the set-up: scale not given: the % may be the effect or the level left.
For data set [4], the system named is Nakaseomyces glabratus. Description: Antifungal activity against fluconazole sensitive Candida glabrata ATCC 2001 assessed as reduction in fungal growth incubated for 48 hrs by checkboard assay based microplate reader analysis. In kind it is functional.
For data set [5], the system named is Nakaseomyces glabratus. Description: Indifferent antifungal activity against fluconazole sensitive Candida glabrata ATCC 2001 assessed as reduction in fungal growth incubated for 48 hrs in presence of lapachone by checkboard assay based microplate reader analysis. Type of data set: functional.
The test system of data set [6] is Saccharomyces cerevisiae. Description: Induction of ROS generation in fluconazole resistant Saccharomyces cerevisiae overexpressing CgCdr1p transporter assessed as fold increase in ROS level incubated for 90 mins by DCFH-DA dye based fluorescence assay. As to conditions: 1.5 h. In kind it is functional.
The test system of data set [7] is Erythrocyte. Description: Hemolytic activity in human erythrocytes assessed as haemoglobin release at 50 ug/ml incubated for 1 hr by absorbance based method. As to conditions: dose 50 µg/ml. Type of data set: toxicity, cell-based.
Data set [8] deals with Erythrocyte. Description: Hemolytic activity in human erythrocytes assessed as haemoglobin release at 50 ug/ml incubated for 1 hr in presence of fluconazole by absorbance based method. To be noted: dose 50 µg/ml. In kind it is toxicity, cell-based.
Data set [9] deals with Saccharomyces cerevisiae. The data set can be described thus: Additive antifungal activity against fluconazole resistant Saccharomyces cerevisiae overexpressing CgCdr1p transporter assessed as reduction in fungal growth incubated for 48 hrs in presence of lapachone by checkboard assay based microplate reader analysis. In kind it is functional.
The test system of data set [10] is Saccharomyces cerevisiae. Description: Additive antifungal activity against fluconazole resistant Saccharomyces cerevisiae overexpressing CgCdr1p transporter assessed as fractional inhibitory concentration incubated for 48 hrs in presence of lapachone by checkboard assay based microplate reader analysis. In kind it is functional.
Data set [11] has as its system Saccharomyces cerevisiae. The data set can be described thus: Additive antifungal activity against fluconazole resistant Saccharomyces cerevisiae overexpressing CgCdr1p transporter assessed as reduction in fungal growth incubated for 48 hrs in presence of fluconazole by checkboard assay based microplate reader analysis. Type of data set: functional.
Data set [12] relates to Saccharomyces cerevisiae. The data set can be described thus: Additive antifungal activity against fluconazole resistant Saccharomyces cerevisiae overexpressing CgCdr1p transporter assessed as fractional inhibitory concentration in presence of fluconazole incubated for 48 hrs by checkboard assay based microplate reader analysis. In kind it is functional.
Data set [13] deals with Saccharomyces cerevisiae. Description: Additive antifungal activity against fluconazole resistant Saccharomyces cerevisiae overexpressing CgCdr1p transporter assessed as fractional inhibitory concentration index incubated for 48 hrs by checkboard assay based microplate reader analysis. In kind it is functional.
Data set [14] relates to Nakaseomyces glabratus. The data set can be described thus: Disruption of plasma membrane integrity in fluconazole resistant Candida glabrata 109 overexpressing CgCdr1p transporter assessed as fold increase in sytox green fluorescence intensity at 200 ug/ml incubated for 48 hrs by fluorescence based assay. Type of data set: functional. As to conditions: dose 200 µg/ml.
For data set [15], the system named is Nakaseomyces glabratus. Description: Disruption of plasma membrane integrity in fluconazole resistant Candida glabrata 109 overexpressing CgCdr1p transporter assessed as fold increase in sytox green fluorescence intensity at 50 ug/ml incubated for 48 hrs by fluorescence based assay. Type of data set: functional. As to conditions: dose 50 µg/ml.
Data set [16] deals with Saccharomyces cerevisiae. Description: Synergistic antifungal activity against fluconazole resistant Saccharomyces cerevisiae overexpressing CgCdr1p transporter assessed as reduction in fungal growth incubated for 48 hrs in presence of lapachone by checkboard assay based microplate reader analysis. Type of data set: functional.
The test system of data set [17] is Saccharomyces cerevisiae. Description: Synergistic antifungal activity against fluconazole resistant Saccharomyces cerevisiae overexpressing CgCdr2p transporter assessed as reduction in fungal growth incubated for 48 hrs in presence of lapachone by checkboard assay based microplate reader analysis. In kind it is functional.
Data set [18] has as its system Saccharomyces cerevisiae. Description: Synergistic antifungal activity against fluconazole resistant Saccharomyces cerevisiae overexpressing CgCdr1p transporter assessed as fractional inhibitory concentration incubated for 48 hrs in presence of lapachone by checkboard assay based microplate reader analysis. Type of data set: functional.
The test system of data set [19] is Saccharomyces cerevisiae. Description: Synergistic antifungal activity against fluconazole resistant Saccharomyces cerevisiae overexpressing CgCdr2p transporter assessed as fractional inhibitory concentration incubated for 48 hrs in presence of lapachone by checkboard assay based microplate reader analysis. Type of data set: functional.
The test system of data set [20] is Saccharomyces cerevisiae. Description: Synergistic antifungal activity against fluconazole resistant Saccharomyces cerevisiae overexpressing CgCdr1p transporter assessed as reduction in fungal growth incubated for 48 hrs in presence of fluconazole by checkboard assay based microplate reader analysis. In kind it is functional.
Data set [21] deals with Saccharomyces cerevisiae. Description: Synergistic antifungal activity against fluconazole resistant Saccharomyces cerevisiae overexpressing CgCdr2p transporter assessed as reduction in fungal growth incubated for 48 hrs in presence of fluconazole by checkboard assay based microplate reader analysis. In kind it is functional.
For data set [22], the system named is Saccharomyces cerevisiae. Description: Synergistic antifungal activity against fluconazole resistant Saccharomyces cerevisiae overexpressing CgCdr1p transporter assessed as fractional inhibitory concentration in presence of fluconazole incubated for 48 hrs by checkboard assay based microplate reader analysis. In kind it is functional.
The subject of data set [23] is Saccharomyces cerevisiae. Description: Synergistic antifungal activity against fluconazole resistant Saccharomyces cerevisiae overexpressing CgCdr2p transporter assessed as fractional inhibitory concentration in presence of fluconazole incubated for 48 hrs by checkboard assay based microplate reader analysis. In kind it is functional.
Data set [24] deals with Saccharomyces cerevisiae. Description: Inhibition of fluconazole resistant Saccharomyces cerevisiae overexpressing CgCdr2p transporter ATPase activity assessed as reduction in inorganic phosphate release in presence of ATP incubated for 1 hr by Fiske and Sub barrow method. As to conditions: concentration not given here.
The test system of data set [25] is Nakaseomyces glabratus. The data set can be described thus: Inhibition of fluconazole resistant Candida glabrata 109 overexpressing CgCdr1p transporter ATPase activity assessed as reduction in inorganic phosphate release in presence of ATP incubated for 1 hr by Fiske and Sub barrow method. As to conditions: concentration not given here.
Data set [26] concerns Erythrocyte. Description: Hemolytic activity in human erythrocytes assessed as haemoglobin release at 12.5 ug/ml incubated for 1 hr by absorbance based method. Type of data set: toxicity, cell-based. As to conditions: dose 12.5 µg/ml.
The test system of data set [27] is Erythrocyte. Description: Hemolytic activity in human erythrocytes assessed as haemoglobin release at 12.5 ug/ml incubated for 1 hr in presence of fluconazole by absorbance based method. In kind it is toxicity, cell-based. To be noted: dose 12.5 µg/ml.
The nature of data set [28]: Inhibition of fluconazole resistant Candida glabrata 109 overexpressing CgCdr1p transporter […] cell adhesion to polystyrene at 200 ug/ml incubated for 90 mins by MTT assay. In kind it is functional. As to conditions: Nakaseomyces glabratus, 109, 1.5 h. For orientation: Tetrazolium assays rely on reduction of a dye to a coloured formazan, in cell work by metabolically active cells.

In data set [29] the test system is Saccharomyces cerevisiae. The data set can be described thus: Synergistic antifungal activity against fluconazole resistant Saccharomyces cerevisiae overexpressing CgCdr1p transporter assessed as fractional inhibitory concentration index incubated for 48 hrs by checkboard assay based microplate reader analysis. In kind it is functional.

One may read the MIC as the smallest concentration in the dilution series that meets the test's criterion for growth inhibition. As to `CC1(C)CC2=C(O1)c1ccccc1C(=O)C2=O` [NOR-BETA-LAPACHONE], the MIC in data set [1] was more than 200 µg/mL; in data set [2], more than 200 µg/mL; in data set [4], 15.6 µg/mL (≈ 68.3 µM); in data set [5] it was 100 µg/mL; in data set [9], 25 µg/mL; in [11], 62.5 µg/mL. Besides, the figures for the Activity in data set [3], in data set [7] and in [8] were 46%, “Non-Toxic” and “Non-Toxic”, respectively. The “fold change (FC)” value in data set [6] was determined as 3. Also, the FIC in [10] was 0.5 µg/mL; in [12], 0.125 µg/mL. Moreover, the “fractional inhibitory concentration index (FICI)” value in data set [13] is given as 0.625.
The term inhibition denotes the percentage by which the read-out fell short of the control. `CC1(C)CCC2=C(O1)c1ccccc1C(=O)C2=O` [LAPACHONE]: the MIC in [1] was more than 200 µg/mL; in [2], more than 200 µg/mL; in data set [16], 25 µg/mL; in data set [17], 6.25 µg/mL; in [20] it was 125 µg/mL; in [21] it was 3.9 µg/mL. The MIC in data set [4] came out at 12.5 µg/mL (≈ 51.6 µM); in data set [5] it was 12.5 µg/mL. Moreover, the results for the “fold change (FC)” value in [14], in data set [15] and in data set [6] were 3, 1.6 and 3, respectively. Further, the figures for the Activity in [3], in data set [26] and in data set [27] were 88%, “Non-Toxic” and “Non-Toxic”, respectively. Besides, the FIC came out at 0.25 µg/mL in data set [18], 0.25 µg/mL in data set [19], 0.25 µg/mL in data set [22] and 0.06 µg/mL in data set [23]. For the same molecule, the values for the inhibition in data set [24] and in data set [25] were 46% and 49%, respectively. For the same molecule, testing at 200 µg/mL in data set [28] gave an inhibition of 44%. Besides, the “fractional inhibitory concentration index (FICI)” value in data set [29] is recorded as 0.5.

Values taken from ChEMBL document CHEMBL5120826, “Effects of β-lapachone and β-nor-lapachone on multidrug efflux transporters and biofilms of Candida glabrata” (Bioorg Med Chem, 2022).
